{"source": "patent US20180030537A1", "about": "“PUMA, A PRO-APOPTOTIC GENE, AS A NOVEL MOLECULAR BIOMARKER FOR TNFALPHA-INDUCED HUMAN ISLET DAMAGE” (CITY OF HOPE, priority 2010, published 2018)", "molecules": {"B1": {"name": "IFN-γ: recombinant human IFNγ, R&D Systems; cytokine stimulus (protein, UniProt P01579 24-161, looked up)", "Interferon gamma": "QDPYVKEAENLKKYFNAGHSDVADNGTLFLGILKNWKEESDRKIMQSQIVSFYFKLFKNFKDDQSIQKSVETIKEDMNVKFFNSNKKKRDDFEKLTNYSVTDLNVQRKAIHELIQVMAELSPAAKTGKRKRSQMLFRG"}}, "key": {"human islets [1]": {"system": "human islets", "assay": "Drug compound screening in single human islets: TNF-α induced PUMA, IL-8 and TNF mRNA", "assay_type": "cell-based", "conditions": "pre-incubation 1 hour, 10 μM (Etanercept 0.1 μg/mL), then 5 ng/mL TNF-α 4 hours, vs control (vehicle alone); for TNF-α induced up regulation of PUMA mRNA (% ACTB): FIG. 4A; for TNF-α induced up regulation of IL-8 mRNA (% ACTB): FIG. 4B; for TNF-α induced up regulation of endogenous TNF mRNA (% ACTB): FIG. 4C", "method": "FIGS. 4A-C. PUMA, IL-8 and TNF-α are used as markers to screen drug compounds protecting islets from TNF-α stimulus. Single human islets in hextuplicate were pre-incubated with various drugs (all used at 10 μM except Etanercept (0.1μ/ml)) or solvent (DMSO) at 37° C. for 1 hour, followed by stimulation with or without 5 ng/ml of TNF-α for an additional 4 hours. FIG. 4A: PUMA and ACTB mRNA were quantified and the results are expressed as % ACTB (*p<0.05 vs. control islets with TNF-α). FIG. 4B: IL-8 was quantified and the results are expressed as % ACTB. FIG. 4C: Endogenous TNF-α was quantified and the results are expressed as % ACTB. Together, the results of FIGS. 4A-C show an example of a compound screening system using PUMA, IL-8 and TNF mRNA.\nHuman islets and acinar cells isolated for research use were obtained from the Southern California Islet Cell Resources (SC-ICR) Center, Beckman Research Institute of the City of Hope (Duarte, Calif.) 1 to 3 days after isolation. The donor age ranged from 18 to 67 (48±14) years and included both sexes. Islet preparations with >70% purity and >90% viability were used. The use of human islets and acinar cells in this study was approved by the Institutional Review Board of the City of Hope. For mRNA experiments, islets between 150 μm to 300 μm in diameter (medium size islet) were handpicked in hexuplicate by experienced personnel under a dissection microscope without staining. Each handpicked islet was cultured individually in a non-tissue culture treated 96 well plate (Sarstedt, Newton, N.C.) with a CMRL (Mediatech Inc., Holly Hill, Fla.) based serum-free medium, which is used to culture human islets for clinical transplantation. Islets were treated with or without recombinant human TNF-α (0, 1, 5, 50 ng/mL) and/or recombinant human IFNγ (0, 10, 100, 1000 U/mL) for up to 16 hours. For other islet experiments, 500 to 1000 islet equivalent (IEQ) were cultured (500 IEQ/mL of medium) in a Petri dish for up to 24 hours in the same condition described above unless otherwise specified. For acinar cell experiments, acinar cells were kept in islet culture medium at 4° C. immediately after the isolation and used within 24 hours. Aliquots of 5-10 acinar cell clusters in triplicates were cultured with islet culture medium with or without TNF-α for up to 16 hours. For drug compound screening experiments, islets were pre-incubated with Etanercept, FK506, Cyclosporine (CsA), Rapamycin, Imatinib mesylate, Janus Kinase (JAK) inhibitor or p38 inhibitor, SB203580, for 1 hour, and then 5 ng/mL TNF-α was added to the islet culture for 4 hours. All the compounds except Etanercept (0.1 μg/mL) were dissolved in dimethyl sulfoxide (DMSO) and used at a concentration of 10 μM (all compounds are gifts from Hitachi Chemical Research Center).\nRNA purification and PCR was performed as described previously (32). Briefly, following culture, islets were transferred to a 96-well filter plate (Hitachi Chemical Research Center-HCR, Irvine, Calif.)(44) and 50 μL of Lysis Buffer (HCR) containing a cocktail of specific reverse primers was applied to each well. Poly(A)+mRNA isolation was performed using the Hem(A)+™ System (Hitachi Chemical Research Center, Irvine, Calif.). The resultant cell lysates were transferred to oligo(dT)-immobilized microplates (GenePlate, HCR) for poly(A)^+ mRNA purification (45). The cDNA was directly synthesized with 30 μL of solution in each well: specific primer-primed cDNA in the liquid phase and oligo(dT)-primed cDNA in the solid phase (44). The cDNA in the solution was diluted by adding 30 μL nuclease-free water, with 4 μL of the diluted cDNA used for SYBR Green PCR (BioRad, Hercules, Calif.) (46). Each gene was amplified individually. The cycle threshold (Ct) was determined using analytical software (SDS, Applied Biosystems, Foster City, Calif.). Differences in Ct between the target and control mRNA (ΔCt) are used to quantify the relative amount of each target, calculated as 2^−ΔCt. […]"}, "islets": {"system": "islets", "conditions": "in vitro; cited from earlier work"}, "NOD mice": {"system": "NOD mice", "conditions": "cited from earlier work"}, "[2]": {"conditions": "children with new onset of T1DM; cited from earlier work"}, "human islets [3]": {"system": "human islets", "assay": "IL-1β stimulation of single human islets, mRNA by RT-PCR", "assay_type": "cell-based", "conditions": "recombinant IL-1β up to 100 U/mL, up to 16 hours, n=1", "method": "FIGS. 16A-D. IL-1β up-regulates PUMA mRNA in human islets. Single islets in sextuplicate were stimulated with or without recombinant IL-1β (0.10 and 100 U/mL) for up to 16 hours. FIG. 16A) PUMA, FIG. 16B) IL-8, FIG. 16C) endogenous IL-1B and FIG. 16D) endogenous TNF mRNA in islets were normalized by β actin (% ACTB) mRNA assessed by RT-PCR (n=1). IL-1β induced PUMA, IL-8, endogenous IL-1 and TNF in human islets.\nIn addition to TNF-α, the expression of PUMA was examined following stimulation with […]. […] alone stimulation induced PUMA, IL-8, TNF and IL1B mRNA within 4 hours. […] IL-1β-induced PUMA expression can also be explained through the NFκB pathway."}, "human islets [4]": {"system": "human islets", "assay": "Western blot of PUMA and phospho-p65 in cultured human islets", "assay_type": "cell-based", "method": "All data are presented as a mean±standard error.\nIn some experiments, islets were pre-incubated with 10 μM NFκB inhibitor; BAY11-7082 for 1 hour before cytokine stimulation. Islet cell lysis and western blot was performed as previously described (49)."}, "human islets [5]": {"system": "human islets", "assay": "Cytokine stimulation of single human islets, mRNA quantification", "assay_type": "cell-based", "conditions": "TNF-α 1, 5, 50 ng/ml and/or IFNγ 10, 100, 1000 U/ml", "description": "Single islets were stimulated with or without 50 ng/ml TNF-α for 16 hours. Each dot indicates the result of one islet lot tested in hextuplicate. The tests were performed using 4 different human islet lots. Bars indicate the mean of 4 lots. Each gene expression was normalized by ACTB (a gene encoding β actin), and the fold increase was calculated by dividing TNF-α treated islets by control islets (*p<0.01, n=4). […] FIGS. 8B-D) PUMA (FIG. 8B), IL-8 (FIG. 8C) and TNF-α (FIG. 8D) expression from single human islets (n=6) stimulated with 0 (open circles), 1 (solid triangles), 5 (solid squares) and 50 ng/ml (solid circles) TNF-α for 0, 1, 4, 16 hours in 3 independent cases. Dose dependent expression of (FIG. 8E) PUMA, (FIG. 8F) IL-8 and (FIG. 8G) TNF-α in human islet at the 4 hour time point (n=3). […] (FIG. 8K) PUMA and (FIG. 8L) IL-8 expression in human islets stimulated with or without TNF-α (1, 5, 50 ng/ml) and/or IFNγ (10, 100, 1000 U/ml) for 4 hours. […] All data are presented as a mean±standard error.\nHuman islets and acinar cells isolated for research use were obtained from the Southern California Islet Cell Resources (SC-ICR) Center, Beckman Research Institute of the City of Hope (Duarte, Calif.) 1 to 3 days after isolation. The donor age ranged from 18 to 67 (48±14) years and included both sexes. Islet preparations with >70% purity and >90% viability were used. […]"}, "human islets [6]": {"system": "human islets", "assay": "Preproinsulin precursor mRNA synthesis and total insulin release of single human islets", "assay_type": "cell-based", "conditions": "16 hours, high glucose; TNF-α 50 ng/mL; IFNγ 10-1000 U/ml; FIG. 3B, 3C", "description": "FIG. 3B) The glucose induced newly synthesized preproinsulin precursor mRNA measured by pre-spliced preproinsulin mRNA normalized by pre- and post-spliced preproinsulin mRNA (% exon) in the corresponding islets with or without 50 ng/ml. TNF-α was also examined (n=3, *p<0.05). FIG. 3C) Glucose induced preproinsululin precursor mRNA synthesis with or without TNF-α (1, 5 and 50 ng/ml) and/or IFNγ (10, 100 and 1000 U/ml) from a single human islet in hextuplicate. […] All data are presented as a mean±standard error.\nHand picked human islets were cultured with 100 uL of RPMI 1640 medium containing 5% fetal bovine serum and either low-glucose (3.3 mmol/L) or high-glucose (17 mmol/L) for 16 hours. Preproinsulin mRNA synthesis was measured from the islets by the methods described above. Pre-spliced preproinsulin mRNA (preproinsulin precursor mRNA) was normalized by pre- and post-spliced preproinsulin mRNA as described previously (32).\nThe effect of TNF-α and/or IFN-γ on β cell function was examined by analyzing the ability of human islets to synthesize and release insulin. […] The dose dependent effect of TNF-α and/or IFN-γ on preproinsulin precursor mRNA synthesis was also examined."}}, "note": "“Also recorded” adds a separate entry of the source."}
{"molecule": "Cc1ccc(NC(=O)c2ccc(CN3CCN(C)CC3)cc2)cc1Nc1nccc(-c2cccnc2)n1", "note": "[Imatinib]", "values": [{"measurement": "TNF-α induced up regulation of PUMA mRNA (% ACTB)", "setting": "human islets [1]", "result": "reduced the up regulation"}, {"measurement": "TNF-α induced up regulation of IL-8 mRNA (% ACTB)", "setting": "human islets [1]", "result": "reduced the up regulation"}, {"measurement": "TNF-α induced up regulation of endogenous TNF mRNA (% ACTB)", "setting": "human islets [1]", "result": "reduced the up regulation"}, {"measurement": "protection of islets from combined cytokines", "setting": "islets", "result": "protect islets from combined cytokines"}, {"measurement": "spontaneous onset of diabetes", "setting": "NOD mice", "result": "prevents the spontaneous onset of diabetes"}]}
{"molecule": "Etanercept", "values": [{"measurement": "TNF-α induced up regulation of PUMA mRNA (% ACTB)", "setting": "human islets [1]", "result": "prevented TNF-α induced up regulation"}, {"measurement": "TNF-α induced up regulation of IL-8 mRNA (% ACTB)", "setting": "human islets [1]", "result": "prevented TNF-α induced up regulation"}, {"measurement": "TNF-α induced up regulation of endogenous TNF mRNA (% ACTB)", "setting": "human islets [1]", "result": "prevented TNF-α induced up regulation"}, {"measurement": "HbA1C levels", "setting": "[2]", "result": "lowering HbA1C levels"}, {"measurement": "endogenous insulin production", "setting": "[2]", "result": "increased levels of endogenous insulin production"}]}
{"molecule": "IL-1β: recombinant IL-1β; cytokine stimulus", "values": [{"measurement": "PUMA mRNA (% ACTB) in human islets", "setting": "human islets [3]; FIG. 16A", "result": "induced; also recorded: returned to the normal level by 16 hours"}, {"measurement": "IL-8 mRNA (% ACTB) in human islets", "setting": "human islets [3]; FIG. 16B", "result": "induced"}, {"measurement": "endogenous IL-1B mRNA (% ACTB) in human islets", "setting": "human islets [3]; FIG. 16C", "result": "induced"}, {"measurement": "endogenous TNF mRNA (% ACTB) in human islets", "setting": "human islets [3]; FIG. 16D", "result": "induced"}]}
{"molecule": "Cc1ccc(S(=O)(=O)/C=C/C#N)cc1", "note": "[BAY11-7082]", "values": [{"measurement": "PUMA expression induced by the combination of TNF-α and IFNγ (western blot)", "setting": "human islets [4]; 10 μM pre-incubation 1 hour, TNF-α 50 ng/ml + IFNγ 1000 U/ml, FIG. 2C", "result": "did not inhibit PUMA expression"}]}
{"molecule": "B1", "values": [{"measurement": "PUMA protein expression (western blot)", "setting": "human islets [4]; TNF-α 50 ng/mL and/or IFN-γ 1000 U/mL, FIG. 2A", "result": "but not by IFN-γ (1000 U/mL) alone"}, {"measurement": "PUMA mRNA expression in human islets", "setting": "human islets [5]; 4 hours, FIG. 8K", "result": "did not induce PUMA"}, {"measurement": "IL-8 mRNA expression in human islets", "setting": "human islets [5]; FIG. 8C, 8F, 8L", "result": "did not induce IL-8 expression"}, {"measurement": "glucose-induced preproinsulin precursor mRNA synthesis", "setting": "human islets [6]", "result": "did not impair"}]}
